Data reported in patent publication US7074824B2, “Pharmaceutical compositions containing beta-lapachone, or derivatives or analogs thereof, and methods of using same” (Arqule, Inc., priority 2001, dated 2006).
In brackets after ≈: the same amount, converted by molar mass. Where two headings read alike, the source gives them in different places.

Tests used:
[1] = Solubility of β-lapachone in aqueous HPBCD solutions (heated to 70° C., filtered, HPLC); type: physicochemical
Procedure: A β-lapachone/HPBCD solution was prepared without prior solubilization of the β-lapachone in ethanol solution. β-lapachone was combined with aqueous solutions of HPBCD in varying concentrations and the mixtures were heated to 70° C., then allowed to cool to room temperature. The cooled solutions were filtered (0.22μ), and the amount of the solubilized β-lapachone was measured by HPLC analysis.

[2] = Solubility of β-lapachone in common solvent systems used for intravenous delivery; type: physicochemical
Source text: β-lapachone, as well as its derivatives and analogs thereof (also referred to herein as the “active compounds”), are described in Li, C. J. et al., J. Biol. Chem., 1993. These active compounds can be incorporated into pharmaceutical compositions suitable for parenteral administration. Such compositions typically comprise the active compound and a pharmaceutically acceptable carrier, excipient, diluent or adjuvant. However, the low solubility of β-lapachone in most pharmaceutically acceptable solvents has been an obstacle to the development of a suitable formulation for parenteral and topical administration, particularly intravenous and cutaneous administration, respectively. Table 1 illustrates the limited solubility of β-lapachone in common solvent systems used for intravenous delivery of drugs. […] To achieve this plasma concentration, an intravenous formulation must have a β-lapachone concentration approaching 10 mg/ml and be able to be diluted 5–×10× with sterile fluids for intravenous administration, such as saline or D5W.
Various pharmaceutically acceptable solvent systems known to solubilize hydrophobic drug substances were evaluated with β-lapachone. […] However, none of these systems could be diluted 5× with sterile saline without significant precipitation of the β-lapachone from solution. In addition, most of these co-solvents and surfactants have their own toxicity and tolerability issues that need to be managed during high dose drug administration.

[3] = biological target: human DNA Topoisomerases II (Homo sapiens, UniProt P11388); conditions: cited from earlier work
human DNA Topoisomerases II, sequence (P11388 whole entry): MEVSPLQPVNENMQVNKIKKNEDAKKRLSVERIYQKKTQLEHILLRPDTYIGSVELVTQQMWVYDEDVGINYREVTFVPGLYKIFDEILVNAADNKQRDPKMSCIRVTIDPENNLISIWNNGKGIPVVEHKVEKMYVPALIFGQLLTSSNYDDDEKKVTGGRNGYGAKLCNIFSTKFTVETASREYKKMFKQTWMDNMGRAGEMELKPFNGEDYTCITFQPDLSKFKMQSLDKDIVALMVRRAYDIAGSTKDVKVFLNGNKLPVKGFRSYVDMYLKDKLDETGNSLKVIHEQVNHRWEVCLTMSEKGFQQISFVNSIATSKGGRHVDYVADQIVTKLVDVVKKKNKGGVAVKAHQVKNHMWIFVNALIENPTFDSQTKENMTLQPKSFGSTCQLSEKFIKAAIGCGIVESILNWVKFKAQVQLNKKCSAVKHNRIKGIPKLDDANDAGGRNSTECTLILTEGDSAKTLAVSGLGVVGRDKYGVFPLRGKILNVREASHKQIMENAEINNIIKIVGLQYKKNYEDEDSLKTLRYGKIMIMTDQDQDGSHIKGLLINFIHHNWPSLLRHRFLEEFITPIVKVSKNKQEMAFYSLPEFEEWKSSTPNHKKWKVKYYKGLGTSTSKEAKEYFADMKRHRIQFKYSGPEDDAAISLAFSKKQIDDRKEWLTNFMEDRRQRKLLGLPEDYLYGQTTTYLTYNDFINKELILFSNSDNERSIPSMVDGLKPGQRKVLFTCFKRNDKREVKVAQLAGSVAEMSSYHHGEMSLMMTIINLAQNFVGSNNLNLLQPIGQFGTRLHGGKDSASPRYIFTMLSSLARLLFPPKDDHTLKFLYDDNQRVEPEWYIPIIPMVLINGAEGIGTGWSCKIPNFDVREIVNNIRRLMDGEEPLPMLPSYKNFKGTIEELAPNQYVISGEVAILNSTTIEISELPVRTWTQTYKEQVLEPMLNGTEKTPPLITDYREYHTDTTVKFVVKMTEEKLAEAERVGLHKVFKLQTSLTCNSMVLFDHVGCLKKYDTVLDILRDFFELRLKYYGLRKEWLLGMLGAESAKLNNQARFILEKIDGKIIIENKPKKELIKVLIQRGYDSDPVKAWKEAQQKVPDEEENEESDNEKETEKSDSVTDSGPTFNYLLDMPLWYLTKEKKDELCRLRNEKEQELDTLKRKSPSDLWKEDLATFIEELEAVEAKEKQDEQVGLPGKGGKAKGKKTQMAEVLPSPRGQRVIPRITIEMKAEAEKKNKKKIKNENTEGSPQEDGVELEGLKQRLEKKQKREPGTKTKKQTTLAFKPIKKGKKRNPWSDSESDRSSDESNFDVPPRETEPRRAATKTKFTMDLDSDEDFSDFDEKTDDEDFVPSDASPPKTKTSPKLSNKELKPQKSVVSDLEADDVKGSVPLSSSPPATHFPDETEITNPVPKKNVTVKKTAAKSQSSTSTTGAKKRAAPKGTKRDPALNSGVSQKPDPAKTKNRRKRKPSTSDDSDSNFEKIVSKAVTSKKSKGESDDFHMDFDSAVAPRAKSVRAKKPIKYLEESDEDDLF

human PBMC = conditions: cited from earlier work
[4] = Relative solubility of 14C-labeled β-lapachone in aqueous solutions of solubilizing agents; type: physicochemical
Procedure: In light of the above, two different strategies were used to enhance β-lapachone solubility in aqueous solution. First, β-lapachone was treated with metal chelating agents, such as calcium and magnesium, to form soluble complexes; second, β-lapachone was treated with the solubilizing agents β-cyclodextrin and γ-cyclodextrin to form soluble inclusion complexes. In order to evaluate these four reagents, ^14C-labeled β-lapachone in a small volume of ethanol was added to aqueous solutions of the reagents (or to PBS buffer as a control), then the relative solubility of β-lapachone in each of the solutions was measured in terms of radioactivity remaining in the supernatant after centrifugation.
Specifically, to individual 1.5 ml Eppendorf tubes containing 900 μl of PBS buffer were added the following: 8 mM CaCl2 in PBS buffer, 8 mM of MgCl2 in PBS buffer, 8 mM β-cyclodextrin in PBS buffer, and 8 mM γ-cyclodextrin in PBS buffer. 10 μl of C^14 labeled β-lapachone (40,000 CPM, 0.55 μg) in 75% ethanol was then added to each tube. After vortexing and centrifuging at 13,000 rpm for 10 min, 100 μl of the supernatant solution was counted for radioactivity using a Beckman Scintillation Counter. […] After vortexing and centrifuging at 13,000 rpm for 10 min, 100 μl of the supernatant solution was counted again for radioactivity. […]

human carcinoma cells = assay: Colony formation assay of β-lapachone combined with Taxol®; type: cell-based; conditions: 4 h exposure, colonies scored after 10–20 days; ovarian, breast, prostate, melanoma, lung and pancreatic cell lines, FIG. 4
Procedure: In these studies, exponentially growing cells were seeded at 1,000 cells per well in six-well plates and allowed to attach for 48 h. β-lapachone and/or Taxol®, solubilized in DMSO, were added to the wells. Control wells were treated with equivalent volumes of DMSO. After 4 h cells were rinsed and fresh medium was added. Cultures were observed daily for 10–20 days and then were fixed and stained. Colonies of greater than 30 cells were scored as survivors.

A2780DDP = tested on: A2780DDP
Procedure: In testing β-lapachone against the cisplatin-resistant-cell lines, cells were exposed to β-lapachone solutions for 4 h. The cells were then rinsed and fresh medium was added. Cultures were observed daily for 10–20 days and then were fixed and stained. Colonies of greater than 30 cells were scored as survivors.

For `CC1(C)CCC2=C(O1)c1ccccc1C(=O)C2=O` [β-lapachone], the “β-lapachone (highest conc.)” value ([1]; 10% HPBCD in water) was 3.1 mg/mL, the “β-lapachone (highest conc.)” value ([1]; 20% HPBCD in water) was 7.4 mg/mL and the “β-lapachone (highest conc.)” value ([1]; 30% HPBCD in water) was 10.8 mg/mL. The “β-lapachone (highest conc.)” value ([1]; 40% HPBCD in water) was 15.8 mg/mL, the solubility ([2]; EtOH 76% diluted 5X in 0.9% saline, aqueous with cosolvent or surfactant or cyclodextrin, EtOH 76%, diluted in 0.9% saline, read-out: β-lapachone Solubility, 5X dilution) was 102 µg/mL (≈ 0.423 mM) and the solubility ([2]; EtOH 76%, organic solvent or mixture, read-out: β-lapachone Solubility, Undiluted) was 10700 µg/mL (≈ 44 mM). It also gave a solubility ([2]; PEG 400, organic solvent or mixture, read-out: β-lapachone Solubility, Undiluted) of 11700 µg/mL (≈ 48.2 mM), a solubility ([2]; PEG 400 diluted 5X in 0.9% saline, aqueous with cosolvent or surfactant or cyclodextrin, PEG 400, diluted in 0.9% saline, read-out: β-lapachone Solubility, 5X dilution) of 140 µg/mL (≈ 0.578 mM) and a solubility ([2]; Poloxamer 20% diluted 5X in 0.9% saline, aqueous with cosolvent or surfactant or cyclodextrin, Poloxamer 20%, diluted in 0.9% saline, read-out: β-lapachone Solubility, 5X dilution) of 33.1 µg/mL (≈ 0.137 mM). It also gave a solubility ([2]; Poloxamer 20%, aqueous with cosolvent or surfactant or cyclodextrin, read-out: β-lapachone Solubility, Undiluted) of 2040 µg/mL (≈ 8.4 mM), a solubility ([2]; Povidone K12 20% diluted 5X in 0.9% saline, aqueous with cosolvent or surfactant or cyclodextrin, Povidone K12 20%, diluted in 0.9% saline, read-out: β-lapachone Solubility, 5X dilution) of 31.3 µg/mL (≈ 0.129 mM) and a solubility ([2]; Povidone K12 20%, aqueous with cosolvent or surfactant or cyclodextrin, read-out: β-lapachone Solubility, Undiluted) of 1860 µg/mL (≈ 7.68 mM). The solubility ([2]; Povidone K17 20% diluted 5X in 0.9% saline, aqueous with cosolvent or surfactant or cyclodextrin, Povidone K17 20%, diluted in 0.9% saline, read-out: β-lapachone Solubility, 5X dilution) was 31.2 µg/mL (≈ 0.129 mM), the solubility ([2]; Povidone K17 20%, aqueous with cosolvent or surfactant or cyclodextrin, read-out: β-lapachone Solubility, Undiluted) was 1820 µg/mL (≈ 7.53 mM) and the solubility ([2]; Propylene Glycol diluted 5X in 0.9% saline, aqueous with cosolvent or surfactant or cyclodextrin, Propylene Glycol, diluted in 0.9% saline, read-out: β-lapachone Solubility, 5X dilution) was 95 µg/mL (≈ 0.392 mM). It also gave a solubility ([2]; Propylene Glycol, organic solvent or mixture, read-out: β-lapachone Solubility, Undiluted) of 8780 µg/mL (≈ 36.2 mM), a solubility ([2]; Trappsol 20% diluted 5X in 0.9% saline, aqueous with cosolvent or surfactant or cyclodextrin, Trappsol 20%, diluted in 0.9% saline, read-out: β-lapachone Solubility, 5X dilution) of 30 µg/mL (≈ 0.124 mM) and a solubility ([2]; Trappsol 20%, aqueous with cosolvent or surfactant or cyclodextrin, read-out: β-lapachone Solubility, Undiluted) of 1460 µg/mL (≈ 6.05 mM). The solubility ([2]; Tween 80, aqueous with cosolvent or surfactant or cyclodextrin, read-out: β-lapachone Solubility, Undiluted) was 11200 µg/mL (≈ 46.1 mM), the solubility ([2]; Tween 80 diluted 5X in 0.9% saline, aqueous with cosolvent or surfactant or cyclodextrin, Tween 80, diluted in 0.9% saline, read-out: β-lapachone Solubility, 5X dilution) was 1660 µg/mL (≈ 6.83 mM) and the solubility ([2]; organic solvent or mixture, highest of all solvent systems, undiluted, read-out: maximum solubility in the solvents listed in Table 1) was about 12000 µg/mL (≈ 49.5 mM). The in vitro inhibition [3] was “potent in vitro inhibition”, the “cytotoxic effects on normal cells” value (human PBMC) was “No cytotoxic effects were observed” and the “β-lapachone present in the supernatant” value ([4]; 0.5 μg β-lapachone added, all five aqueous solutions (PBS, CaCl2, MgCl2, β-cyclodextrin, γ-cyclodextrin)) was about 100%. For the same compound, the “β-lapachone retained in the supernatant” value ([4]; 600 μg β-lapachone added, 8 mM β-cyclodextrin in PBS buffer (only this solution)) was “more than 50%”, the “inhibition of cancer cell survival (colony formation)” value (human carcinoma cells) was “much less effective” and the “cytotoxicity as single agent, resistant versus parent line” value (A2780DDP) was “equally cytotoxic”.
